In PubChem BioAssay AID2060495 (Molecular Pharmacology Branch, DTP, NCI, 2025):

Test system: 521955-158-R2-J5-PDC complex spheroid viability
Experiment: Anticancer human tumor 521955-158-R2-J5-PDC patient-derived pancreatic carcinoma cell line growth inhibition [GQUAD]
Conditions: for IC50: curve of first compound; for viability, T/C: stronger effect = lower value
Outline: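 Multi-cell-type spheroids of tumor cells with HUVEC and mesenchymal stem cells, treated with drug combinations. Concentrations descend in half-log steps from near clinical Cmax, or from 10 microM where Cmax is unknown; viability read-out.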

[1] = second compound 0.0316 µM, first compound 0.0316 µM
[2] = second compound 0.0316 µM, first compound 0.316 µM
[3] = second compound 0.1 µM, first compound 0.0316 µM
[4] = second compound 0.1 µM, first compound 0.316 µM
[5] = second compound 0.316 µM, first compound 0.0316 µM
[6] = second compound 0.316 µM, first compound 0.316 µM
[7] = second compound 1 µM, first compound 0.0316 µM
[8] = second compound 1 µM, first compound 0.316 µM
[9] = second compound 3.16 µM, first compound 0.0316 µM
[10] = second compound 3.16 µM, first compound 0.316 µM
[11] = second compound 10 µM, first compound 0.0316 µM
[12] = second compound 10 µM, first compound 0.316 µM
[13] = second compound 0.0316 µM, first compound 0.1 µM
[14] = second compound 0.0316 µM, first compound 1 µM
[15] = second compound 0.0316 µM, first compound 3.16 µM
[16] = second compound 0.0316 µM, first compound 10 µM
[17] = second compound 0.1 µM, first compound 0.1 µM
[18] = second compound 0.1 µM, first compound 1 µM
[19] = second compound 0.1 µM, first compound 3.16 µM
[20] = second compound 0.1 µM, first compound 10 µM
[21] = second compound 0.316 µM, first compound 0.1 µM
[22] = second compound 0.316 µM, first compound 1 µM
[23] = second compound 0.316 µM, first compound 3.16 µM
[24] = second compound 0.316 µM, first compound 10 µM
[25] = second compound 1 µM, first compound 0.1 µM
[26] = second compound 1 µM, first compound 1 µM
[27] = second compound 1 µM, first compound 3.16 µM
[28] = second compound 1 µM, first compound 10 µM
[29] = second compound 3.16 µM, first compound 0.1 µM
[30] = second compound 3.16 µM, first compound 1 µM
[31] = second compound 3.16 µM, first compound 3.16 µM
[32] = second compound 3.16 µM, first compound 10 µM
[33] = second compound 10 µM, first compound 0.1 µM
[34] = second compound 10 µM, first compound 1 µM
[35] = second compound 10 µM, first compound 3.16 µM
[36] = second compound 10 µM, first compound 10 µM
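Further: spheroids exposed to agents for one week before reading.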
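Wherever viability, T/C is given: 100% = DMSO vehicle control viability.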

## CC[C@@]1(O)C(=O)OCc2c1cc1n(c2=O)Cc2cc3c(CN(C)C)c(O)ccc3nc2-1 + Cc1[nH]c2ccc(F)cc2c1-c1nc2c3cccnc3c3ncccc3c2[nH]1
Second compound 0.0316 µM
  IC50: 54.2 nM
Second compound 0.1 µM
  IC50: 65.6 nM
Second compound 0.316 µM
  IC50: 66.3 nM
Second compound 1 µM
  IC50: 67.2 nM
Second compound 3.16 µM
  IC50: 61 nM
Second compound 10 µM
  IC50: 69.3 nM
Second compound 0.0316 µM, first compound 0.000999 µM
  viability, T/C: 108%
Second compound 0.0316 µM, first compound 0.00316 µM
  viability, T/C: 96.6%
Second compound 0.0316 µM, first compound 0.00999 µM
  viability, T/C: 123%
[1]
  viability, T/C: 69.8%
Second compound 0.0316 µM, first compound 0.0999 µM
  viability, T/C: 29%
[2]
  viability, T/C: 9.65%
Second compound 0.1 µM, first compound 0.000999 µM
  viability, T/C: 90.7%
Second compound 0.1 µM, first compound 0.00316 µM
  viability, T/C: 115%
Second compound 0.1 µM, first compound 0.00999 µM
  viability, T/C: 100%
[3]
  viability, T/C: 91.8%
Second compound 0.1 µM, first compound 0.0999 µM
  viability, T/C: 26%
[4]
  viability, T/C: 10.2%
Second compound 0.316 µM, first compound 0.000999 µM
  viability, T/C: 104%
Second compound 0.316 µM, first compound 0.00316 µM
  viability, T/C: 120%
Second compound 0.316 µM, first compound 0.00999 µM
  viability, T/C: 109%
[5]
  viability, T/C: 84.7%
Second compound 0.316 µM, first compound 0.0999 µM
  viability, T/C: 30.9%
[6]
  viability, T/C: 9.94%
Second compound 1 µM, first compound 0.000999 µM
  viability, T/C: 115%
Second compound 1 µM, first compound 0.00316 µM
  viability, T/C: 97%
Second compound 1 µM, first compound 0.00999 µM
  viability, T/C: 115%
[7]
  viability, T/C: 95.3%
Second compound 1 µM, first compound 0.0999 µM
  viability, T/C: 26.1%
[8]
  viability, T/C: 9.43%
Second compound 3.16 µM, first compound 0.000999 µM
  viability, T/C: 115%
Second compound 3.16 µM, first compound 0.00316 µM
  viability, T/C: 108%
Second compound 3.16 µM, first compound 0.00999 µM
  viability, T/C: 103%
[9]
  viability, T/C: 70.8%
Second compound 3.16 µM, first compound 0.0999 µM
  viability, T/C: 34.1%
[10]
  viability, T/C: 10.8%
Second compound 10 µM, first compound 0.000999 µM
  viability, T/C: 91.8%
Second compound 10 µM, first compound 0.00316 µM
  viability, T/C: 98%
Second compound 10 µM, first compound 0.00999 µM
  viability, T/C: 97.9%
[11]
  viability, T/C: 84.7%
Second compound 10 µM, first compound 0.0999 µM
  viability, T/C: 33.8%
[12]
  viability, T/C: 15.6%

## COc1cc(C2c3cc4c(cc3C(OC3OC5COC(C)OC5C(O)C3O)C3COC(=O)C23)OCO4)cc(OC)c1O (stereo unspecified) + Cc1[nH]c2ccc(F)cc2c1-c1nc2c3cccnc3c3ncccc3c2[nH]1
Second compound 0.0316 µM
  IC50: 645 nM
Second compound 0.1 µM
  IC50: 576 nM
Second compound 0.316 µM
  IC50: 661 nM
Second compound 1 µM
  IC50: 628 nM
Second compound 3.16 µM
  IC50: 653 nM
Second compound 10 µM
  IC50: 556 nM
[1]
  viability, T/C: 99.5%
[13]
  viability, T/C: 72.6%
[2]
  viability, T/C: 73%
[14]
  viability, T/C: 41%
[15]
  viability, T/C: 14%
[16]
  viability, T/C: 9.66%
[3]
  viability, T/C: 81%
[17]
  viability, T/C: 102%
[4]
  viability, T/C: 70.6%
[18]
  viability, T/C: 29.8%
[19]
  viability, T/C: 15.1%
[20]
  viability, T/C: 10.7%
[5]
  viability, T/C: 104%
[21]
  viability, T/C: 94.9%
[6]
  viability, T/C: 76.3%
[22]
  viability, T/C: 34%
[23]
  viability, T/C: 18.7%
[24]
  viability, T/C: 7.53%
[7]
  viability, T/C: 84.2%
[25]
  viability, T/C: 114%
[8]
  viability, T/C: 82.2%
[26]
  viability, T/C: 27.6%
[27]
  viability, T/C: 15.4%
[28]
  viability, T/C: 9.36%
[9]
  viability, T/C: 74.8%
[29]
  viability, T/C: 100%
[10]
  viability, T/C: 73.1%
[30]
  viability, T/C: 35.6%
[31]
  viability, T/C: 14.7%
[32]
  viability, T/C: 11.6%
[11]
  viability, T/C: 96.3%
[33]
  viability, T/C: 94%
[12]
  viability, T/C: 66.8%
[34]
  viability, T/C: 31.9%
[35]
  viability, T/C: 17.1%
[36]
  viability, T/C: 12.4%

## COc1cccc2c1C(=O)c1c(O)c3c(c(O)c1C2=O)CC(O)(C(=O)CO)CC3OC1CC(N)C(O)C(C)O1 (stereo unspecified) + Cc1[nH]c2ccc(F)cc2c1-c1nc2c3cccnc3c3ncccc3c2[nH]1
Second compound 0.0316 µM
  IC50: 150 nM
Second compound 0.1 µM
  IC50: 193 nM
Second compound 0.316 µM
  IC50: 188 nM
Second compound 1 µM
  IC50: 130 nM
Second compound 3.16 µM
  IC50: 156 nM
Second compound 10 µM
  IC50: 182 nM
[1]
  viability, T/C: 102%
[13]
  viability, T/C: 60.3%
[2]
  viability, T/C: 31.3%
[14]
  viability, T/C: 13.2%
[15]
  viability, T/C: 5.72%
[16]
  viability, T/C: 0.72%
[3]
  viability, T/C: 92.3%
[17]
  viability, T/C: 72.2%
[4]
  viability, T/C: 32.9%
[18]
  viability, T/C: 11%
[19]
  viability, T/C: 5.83%
[20]
  viability, T/C: 0.27%
[5]
  viability, T/C: 88.4%
[21]
  viability, T/C: 72.9%
[6]
  viability, T/C: 30%
[22]
  viability, T/C: 13.7%
[23]
  viability, T/C: 3.99%
[24]
  viability, T/C: 0.46%
[7]
  viability, T/C: 90.1%
[25]
  viability, T/C: 57.7%
[8]
  viability, T/C: 25.4%
[26]
  viability, T/C: 14.1%
[27]
  viability, T/C: 5.66%
[28]
  viability, T/C: 0.41%
[9]
  viability, T/C: 85.7%
[29]
  viability, T/C: 65.6%
[10]
  viability, T/C: 24.5%
[30]
  viability, T/C: 17.2%
[31]
  viability, T/C: 4.87%
[32]
  viability, T/C: 0.33%
[11]
  viability, T/C: 97.5%
[33]
  viability, T/C: 73.6%
[12]
  viability, T/C: 27.5%
[34]
  viability, T/C: 12.1%
[35]
  viability, T/C: 9.02%
[36]
  viability, T/C: 0.29%
